Reference: US8815857B2 (Boehringer Ingelheim International GmbH, priority 2011, dated 2014)
Values after ≈ are worked out from the molar mass of the structure shown.

Legend:
[1] = Assessment of solubility: HT solubility in pION buffer, UV spectrophotometry; conditions: for solubility: kinetic from dmso stock
[2] = target: T1, human soluble guanylate cyclase alpha 1 and beta 1 subunits (sGC) stably expressed in Chinese hamster ovary cells (Homo sapiens, UniProt Q02108+Q02153); test: sGC cellular activator assay: cGMP in CHO cells expressing human sGC, preincubated with ODQ; format: cell-based; conditions: 40 microM ODQ preincubation, 30 min at room temperature, presence or absence of 50% human serum not given, read-out: EC50 nM, Activity of Compounds in Cellular Assay
T1 construct: expressed in transfected cells; host or cells: Chinese hamster ovary cells, stably transfected
T1 sequence (Q02108 1-690 partner): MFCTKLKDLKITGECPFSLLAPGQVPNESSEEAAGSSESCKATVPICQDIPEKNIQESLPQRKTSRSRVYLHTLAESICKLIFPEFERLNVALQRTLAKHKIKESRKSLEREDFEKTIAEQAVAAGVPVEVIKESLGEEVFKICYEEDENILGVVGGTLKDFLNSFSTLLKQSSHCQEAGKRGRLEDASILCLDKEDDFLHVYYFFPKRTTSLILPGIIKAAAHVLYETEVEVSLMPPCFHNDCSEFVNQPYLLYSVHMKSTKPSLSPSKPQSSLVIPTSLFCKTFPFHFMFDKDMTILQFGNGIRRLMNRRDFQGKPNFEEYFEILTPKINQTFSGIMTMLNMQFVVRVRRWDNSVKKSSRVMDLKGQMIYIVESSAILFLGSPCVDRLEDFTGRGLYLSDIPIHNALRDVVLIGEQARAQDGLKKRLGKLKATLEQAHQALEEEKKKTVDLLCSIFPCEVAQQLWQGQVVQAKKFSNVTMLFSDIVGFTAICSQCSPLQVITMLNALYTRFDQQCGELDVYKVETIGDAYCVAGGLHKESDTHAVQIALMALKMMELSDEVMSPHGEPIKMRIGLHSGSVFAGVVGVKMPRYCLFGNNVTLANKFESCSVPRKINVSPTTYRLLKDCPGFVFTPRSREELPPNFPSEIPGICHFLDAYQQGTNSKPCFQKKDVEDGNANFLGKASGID
T1 sequence (Q02153 1-619): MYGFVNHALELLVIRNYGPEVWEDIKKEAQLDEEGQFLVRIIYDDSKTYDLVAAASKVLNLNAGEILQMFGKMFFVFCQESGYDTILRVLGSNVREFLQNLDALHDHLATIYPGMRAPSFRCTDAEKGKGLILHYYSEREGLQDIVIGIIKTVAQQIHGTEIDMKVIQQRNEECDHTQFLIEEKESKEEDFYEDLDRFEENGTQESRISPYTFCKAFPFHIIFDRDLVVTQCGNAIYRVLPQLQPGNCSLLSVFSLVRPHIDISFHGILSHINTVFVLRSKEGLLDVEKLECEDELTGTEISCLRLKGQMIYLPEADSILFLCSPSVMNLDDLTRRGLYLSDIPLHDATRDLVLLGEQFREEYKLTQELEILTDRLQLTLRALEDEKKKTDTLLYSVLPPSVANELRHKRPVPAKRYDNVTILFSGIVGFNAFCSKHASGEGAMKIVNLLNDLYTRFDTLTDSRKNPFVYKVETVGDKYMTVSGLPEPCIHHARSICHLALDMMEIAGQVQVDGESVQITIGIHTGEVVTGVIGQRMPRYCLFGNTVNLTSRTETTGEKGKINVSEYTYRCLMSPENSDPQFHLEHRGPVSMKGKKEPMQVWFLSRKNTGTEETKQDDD
Summary of the method: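 EC50 values derive from HTRF cGMP measurement after test compounds act for thirty minutes at room temperature, with or without 50% human serum. Before dosing, the sGC-transfected CHO cells spend one hour with the inhibitor ODQ (40 microM) in IBMX- and 0.1% BSA-containing buffer.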

[3] = target: T2, Recombinant human soluble guanylate cyclase (sGC), alpha 1 / beta 1 subunits, heme-free (Homo sapiens, UniProt Q02108+Q02153); test: Molecular assay: cGMP formation by heme-free recombinant sGC (CisBio cGMP detection kit); format: biochemical; conditions: 300 pM heme-free sGC, 37° C., 60 min, cGMP readout; read-out: EC50 nM, Activity of Compounds in Molecular Assay
T2 construct: histidine tag (C); made in house; host or cells: Sf9 insect cells (baculovirus coinfection)
T2 sequence (Q02108 1-690 partner): T1 sequence (Q02108 1-690 partner)
T2 sequence (Q02153 1-619): T1 sequence (Q02153 1-619)
Summary of the method: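 Heme-free His-tagged sGC (Sf9-expressed, Tween 20-treated lysate) at 300 pM incubated with compounds (1% DMSO) for 60 min at 37° C in MOPS pH 6.8 with 50 nM GTP, IBMX, TCEP. cGMP quantified by HTRF against calibration curve; EC50 from combined undiluted/diluted values.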

[4] = pION system solution buffer, pH 4.5, pH 4.5, aqueous buffer, Solubility (pH 4.5), pH 4.5 buffer, 16-19 h incubation, 1.0% DMSO
[5] = pION system solution buffer, pH 7.4, pH 7.4, aqueous buffer, Solubility (pH 7.4), pH 7.4 buffer, 16-19 h incubation, 1.0% DMSO
[6] = pH 6.8, aqueous buffer, Solubility (pH 6.8), pH 6.8

solubility [1, 4] [µg/mL] | solubility [1, 5] [µg/mL] | EC50 [2] [nM] | EC50 [3] [nM] | solubility [1, 6] [µg/mL] | Solubility (pH 4.5) ([1]; pH 4.5 buffer, 16-19 h incubation, 1.0% DMSO) [μg/mL] | SMILES
3 (≈ 5.04 µM) | > 59 | 68 | 23 | – | – | Cc1cc(CN2CCS(=O)(=O)CC2)ccc1COc1c(C)cccc1-c1csc(N2C[C@H]3CC[C@@H](C2)[C@H]3C(=O)O)n1 [Compound 203]
0.35 (≈ 0.6 µM) | 54 (≈ 92.5 µM) | 17 | 28 | – | – | Cc1ccc(OCc2ccc(CN3CCS(=O)(=O)CC3)cc2C)c(-c2csc(N3CCC(C(=O)O)C(C)C3)n2)c1 (stereo not drawn) [Compound 204]
> 58 | > 58 | 88 | 170 | – | – | Cc1cc(CN2CCOCC2)ccc1COc1c(C)cccc1-c1csc(N2C[C@H]3CC[C@@H](C2)[C@H]3C(=O)O)n1 [Compound 206]
0.3 (≈ 0.536 µM) | > 55 | 39 | 250 | – | – | Cc1cc(C(=O)N2CCCCC2)ccc1COc1c(C)cccc1-c1csc(N2C[C@H]3CC[C@@H](C2)[C@H]3C(=O)O)n1 [Compound 208]
1.4 (≈ 2.27 µM) | 17 (≈ 27.6 µM) | 190 | 370 | – | – | Cc1cc(CN2CCS(=O)(=O)CC2)ccc1COc1ccc(Cl)cc1-c1csc(N2CC3CCC(C2)C3C(=O)O)n1 (stereo not drawn) [Compound 211]
< 0.1 | – | 19 | – | 0.26 (≈ 0.442 µM) | – | Cc1ccc(OCc2ccc(C(=O)N3C[C@H]4CC[C@@H](C3)O4)cc2C)c(-c2csc(N3C[C@H]4CC[C@@H](C3)[C@H]4C(=O)O)n2)c1 [Compound 340]
1.1 (≈ 1.96 µM) | – | 110 | – | 63 (≈ 112 µM) | – | Cc1ccc(OCc2ccc(C(=O)N3CC[C@@H](O)C3)cc2C)c(-c2csc(N3C[C@H]4CC[C@@H](C3)[C@H]4C(=O)O)n2)c1 [Compound 341]
< 0.1 | – | 110 | – | 55 (≈ 93.3 µM) | – | Cc1ccc(OCc2ccc(C(=O)N(C)CC3(CO)CC3)cc2C)c(-c2csc(N3C[C@H]4CC[C@@H](C3)[C@H]4C(=O)O)n2)c1 [Compound 342]
< 0.1 | – | 46 | – | 52 (≈ 86.7 µM) | – | Cc1ccc(OCc2ccc(C(=O)N(C)Cc3ccn(C)n3)cc2C)c(-c2csc(N3C[C@H]4CC[C@@H](C3)[C@H]4C(=O)O)n2)c1 [Compound 343]
– | > 58 | 23 | – | 61 (≈ 108 µM) | 0.1 | COCCN(C)C(=O)c1ccc(COc2ccc(C)cc2-c2csc(N3C[C@H]4CC[C@@H](C3)[C@H]4C(=O)O)n2)c(C)c1 [Compound 344]
4 (≈ 6.77 µM) | > 58 | 130 | – | 66 (≈ 112 µM) | – | Cc1ccc(OCc2ccc(C(=O)N(C)CC(=O)N(C)C)cc2C)c(-c2csc(N3C[C@H]4CC[C@@H](C3)[C@H]4C(=O)O)n2)c1 [Compound 345]
0.46 (≈ 0.777 µM) | > 54 | 67 | – | 36 (≈ 60.8 µM) | – | Cc1ccc(OCc2ccc(C(=O)N(C)CC(C)(C)CO)cc2C)c(-c2csc(N3C[C@H]4CC[C@@H](C3)[C@H]4C(=O)O)n2)c1 [Compound 346]
5.8 (≈ 10.1 µM) | > 53 | 260 | – | 70 (≈ 121 µM) | – | CNC(=O)CN(C)C(=O)c1ccc(COc2ccc(C)cc2-c2csc(N3C[C@H]4CC[C@@H](C3)[C@H]4C(=O)O)n2)c(C)c1 [Compound 347]
0.27 (≈ 0.456 µM) | 37 (≈ 62.5 µM) | 41 | – | 71 (≈ 120 µM) | – | Cc1ccc(OCc2ccc(C(=O)N(C)CCC(C)(C)O)cc2C)c(-c2csc(N3C[C@H]4CC[C@@H](C3)[C@H]4C(=O)O)n2)c1 [Compound 348]
6.5 (≈ 11.6 µM) | – | 40 | – | 69 (≈ 123 µM) | – | Cc1ccc(OCc2ccc(C(=O)N3CCN(C)C(=O)C3)cc2C)c(-c2csc(N3CCC(C(=O)O)CC3)n2)c1 [Compound 349]
0.21 (≈ 0.344 µM) | – | 10 | – | 1.3 (≈ 2.13 µM) | – | Cc1ccc(OCc2ccc(CN(C)[C@@H]3CCS(=O)(=O)C3)cc2C)c(-c2csc(N3C[C@H]4CC[C@@H](C3)[C@H]4C(=O)O)n2)c1 [Compound 351]
0.42 (≈ 0.717 µM) | – | 3.8 | – | 57 (≈ 97.3 µM) | – | Cc1ccc(OCc2ccc(CN3CCN(C)C(=O)C3)cc2C#N)c(-c2csc(N3C[C@H]4CC[C@@H](C3)[C@H]4C(=O)O)n2)c1 [Compound 354]
0.77 (≈ 1.32 µM) | – | 9.2 | – | 7 (≈ 12 µM) | – | Cc1ccc(OCc2ccc(CN3CCOC(C#N)C3)cc2C#N)c(-c2csc(N3C[C@H]4CC[C@@H](C3)[C@H]4C(=O)O)n2)c1 (stereo partly drawn) [Compound 355]
2.7 (≈ 4.6 µM) | – | 24 | – | 1.6 (≈ 2.73 µM) | – | Cc1ccc(OCc2ccc(CN3C[C@@H](C)O[C@@H](C)C3)cc2C#N)c(-c2csc(N3C[C@H]4CC[C@@H](C3)[C@H]4C(=O)O)n2)c1 [Compound 356]
2.3 (≈ 4.02 µM) | – | 24 | – | 11 (≈ 19.2 µM) | – | Cc1ccc(OCc2ccc(CN3CCO[C@H](C)C3)cc2C#N)c(-c2csc(N3C[C@H]4CC[C@@H](C3)[C@H]4C(=O)O)n2)c1 [Compound 357]
0.14 (≈ 0.239 µM) | – | 30 | – | 8.1 (≈ 13.8 µM) | – | Cc1ccc(OCc2ccc(CN3CCOC(C)(C)C3)cc2C#N)c(-c2csc(N3C[C@H]4CC[C@@H](C3)[C@H]4C(=O)O)n2)c1 [Compound 358]
12 (≈ 21 µM) | – | 36 | – | 5.8 (≈ 10.1 µM) | – | Cc1ccc(OCc2ccc(CN3CCOCC3C)cc2C#N)c(-c2csc(N3C[C@H]4CC[C@@H](C3)[C@H]4C(=O)O)n2)c1 (stereo partly drawn) [Compound 359]
– | – | 21 | – | 33 (≈ 58.1 µM) | – | Cc1ccc(OCc2ccc(C(=O)N3CC(F)(F)C3)cc2C)c(-c2csc(N3C[C@H]4CC[C@@H](C3)[C@H]4C(=O)O)n2)c1 [Compound 360]
– | – | 17 | – | 34 (≈ 63.9 µM) | – | Cc1ccc(OCc2ccc(C(=O)N3CCC3)cc2C)c(-c2csc(N3C[C@H]4CC[C@@H](C3)[C@H]4C(=O)O)n2)c1 [Compound 361, 3-(4-{2-[4-(azetidine-1-carbonyl)-2-methyl-benzyloxy]-5-methyl-phenyl}-thiazol-2-yl)-3-aza-bicyclo[3.2.1]octane-8(syn)-carboxylic acid]

SMILES | solubility [1, 4] [µg/mL] | solubility [1, 5] [µg/mL] | EC50 [2] [nM] | EC50 [3] [nM] | solubility [1, 6] [µg/mL] | Solubility (pH 4.5) ([1]; pH 4.5 buffer, 16-19 h incubation, 1.0% DMSO) [μg/mL]
Cc1cc(CN2CCS(=O)(=O)CC2)ccc1COc1c(C)cccc1-c1csc(N2C3CCC2CC(C(=O)O)C3)n1 (stereo not drawn) [Compound 205] | 9.5 (≈ 15.9 µM) | > 59 | 200 | 80 | – | –
Cc1cc(CN2CCS(=O)(=O)CC2)ccc1COc1ccc(Cl)cc1-c1csc(N2C3CCC2CC(C(=O)O)C3)n1 (stereo not drawn) [Compound 207] | 0.95 (≈ 1.54 µM) | 30 (≈ 48.7 µM) | 93 | 170 | – | –
Cc1cc(C(=O)N2CCCCC2)ccc1COc1c(C)cccc1-c1csc(N2C3CCC2CC(C(=O)O)C3)n1 (stereo not drawn) [Compound 209] | 5.1 (≈ 9.11 µM) | > 55 | 96 | 270 | – | –
Cc1cc(CN2CCOCC2)ccc1COc1c(C)cccc1-c1csc(N2C3CCC2CC(C(=O)O)C3)n1 (stereo not drawn) [Compound 210] | > 58 | > 58 | 430 | 350 | – | –
